Test results: patent publication US20180250393A1, “MANIPULATION OF T CELL AND MAST CELL ACTIVATION BY PIK3IP1” (UNIVERSITY OF PITTSBURGH-OF THE COMMONWEALTH SYSTEM OF …, priority 2017, published 2018)

System: Naïve T cells from WT and KO mice
Assay: Th1 differentiation assay with PI3K/Akt pathway inhibitors, IFN-γ expression by flow cytometry
Assay type: cell-based, mouse
Details: Th1 conditions, all concentrations
Experimental: (A) Naïve T cells from WT and KO mice were cultured under Th1 conditions for three days in the presence of PI3K inhibitors (Akti, LY294002 and IC-87114), re-stimulated with PMA/Ionomycin and analyzed for IFNγ and CD25 expression. (B) Quantitation of A. p values were calculated using two-way ANOVA with Sidak's multiple comparisons test. p values are represented with the following symbols: *0.01-0.05, **0.001-0.01, ***<0.001. Data are representative of more than three experiments.
CD4 T cells from spleens and lymph nodes of naïve mice were purified by magnetic separation using the Miltenyi Biotec naïve CD4 T cell isolation kit (Cat#130-104-453). The purity of the final cell population was >90%. […] Cells were then harvested and analyzed by flow cytometry.
In order to determine whether the difference in Th1 polarization was actually due to the absence of PI3K modulation by TrIP, the Th1 differentiation assay was performed on WT and KO T cells with the addition of moderate concentrations of PI3K/Akt pathway inhibitors. […] At the end of culture, cells were re-stimulated with PMA/Ionomycin and evaluated by flow cytometry for IFN-γ expression. […]

Cc1ccccc1-n1c(Cn2cnc3c(N)ncnc32)nc2cccc(C)c2c1=O [IC-87114]
relative potency among the three inhibitors for IFN-γ production: most potent inhibitor at all concentrations
